The results in this text go back to US10626112B2, “Heterocyclic sulfonamide derivative and medicine comprising same” (EA PHARMA CO., LTD., priority 2014, dated 2020).

The experiment has as its target human TRPA1 (Homo sapiens (Human), UniProt O75762). Description: Measurement of TRPA1 antagonist activity (1): intracellular calcium increase. The format is cell-based. As to conditions: 293T cells transfected with human TRPA1 expression plasmid; allylisothiocyanate 20 μM stimulation; intracellular calcium fluorescence; read-out: hTRPA1 IC50. The method in brief:
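HEK293T cells transiently transfected with full-length human TRPA1, loaded with Calcium4 dye in HBSS/20 mM HEPES pH 7.2. Test compound preincubated 10 min, then allylisothiocyanate added at 20 μM final and fluorescence change followed for 5 min. IC50 from sigmoid fit of percent inhibition relative to agonist and buffer controls.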

human TRPA1, sequence (O75762 whole entry): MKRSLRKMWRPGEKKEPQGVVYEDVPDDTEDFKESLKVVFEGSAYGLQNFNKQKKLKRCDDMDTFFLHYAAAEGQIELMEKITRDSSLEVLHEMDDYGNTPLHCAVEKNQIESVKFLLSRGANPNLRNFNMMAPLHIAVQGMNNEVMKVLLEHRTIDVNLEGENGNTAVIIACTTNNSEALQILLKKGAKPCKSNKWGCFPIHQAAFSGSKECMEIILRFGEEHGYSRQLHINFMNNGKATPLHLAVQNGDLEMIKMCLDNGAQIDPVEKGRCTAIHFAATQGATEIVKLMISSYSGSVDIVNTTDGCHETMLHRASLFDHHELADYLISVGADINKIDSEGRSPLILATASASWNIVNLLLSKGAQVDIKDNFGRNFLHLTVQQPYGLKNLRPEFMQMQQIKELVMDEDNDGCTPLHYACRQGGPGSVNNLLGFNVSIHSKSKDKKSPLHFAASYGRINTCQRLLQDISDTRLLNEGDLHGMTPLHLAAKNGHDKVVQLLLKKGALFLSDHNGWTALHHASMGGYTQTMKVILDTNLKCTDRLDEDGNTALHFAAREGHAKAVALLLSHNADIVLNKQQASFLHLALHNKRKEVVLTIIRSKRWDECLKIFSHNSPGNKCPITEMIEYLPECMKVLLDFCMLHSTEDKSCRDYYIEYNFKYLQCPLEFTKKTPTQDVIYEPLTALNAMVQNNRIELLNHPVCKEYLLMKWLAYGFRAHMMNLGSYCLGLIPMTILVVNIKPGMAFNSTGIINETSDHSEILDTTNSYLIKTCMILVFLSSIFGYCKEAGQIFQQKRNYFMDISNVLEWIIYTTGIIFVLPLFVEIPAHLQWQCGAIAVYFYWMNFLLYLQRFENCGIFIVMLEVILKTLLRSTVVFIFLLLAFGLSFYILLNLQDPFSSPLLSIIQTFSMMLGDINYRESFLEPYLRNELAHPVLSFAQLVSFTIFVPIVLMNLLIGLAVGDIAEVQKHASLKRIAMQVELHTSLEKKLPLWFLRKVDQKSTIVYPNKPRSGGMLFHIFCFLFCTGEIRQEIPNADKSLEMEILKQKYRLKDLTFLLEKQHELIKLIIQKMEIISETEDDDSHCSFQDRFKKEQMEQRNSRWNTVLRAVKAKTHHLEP

Consider `C[C@H](NS(=O)(=O)c1cc2ccccc2o1)C(=O)NCc1cccc(OCC2CCOCC2)c1` [Example 183, (2S)-2-(benzofuran-2-ylsulfonylamino)-N-[[3-(tetrahydropyran-4-ylmethoxy)phenyl]methyl]propanamide], for which the concentration for half-maximal inhibition (IC50) – broadly, the midpoint of a concentration-inhibition curve – came to 570 nM.

Consider `C[C@H](NS(=O)(=O)c1cc2cc(F)ccc2o1)C(=O)NCc1cccc(OCc2ccc(C#N)cc2)c1` [Example 184, (2S)-N-[[3-[(4-cyanophenyl)methoxy]phenyl]methyl]-2-[(5-fluorobenzofuran-2-yl)sulfonylamino]propanamide], for which the IC50 turned out to be 41 nM.

In the case of `C[C@H](NS(=O)(=O)c1cc2cc(F)ccc2o1)C(=O)NCc1cccc(OCC2CCOCC2)c1` [Example 185, (2S)-2-[(5-fluorobenzofuran-2-yl)sulfonylamino]-N-[[3-(tetrahydropyran-4-ylmethoxy)phenyl]methyl]propanamide], the IC50 was 250 nM.

On to `O=C(NCc1ccnc(NCc2ccc(C(F)(F)F)cc2)c1)[C@@H]1CCCN1S(=O)(=O)c1cc2ccccc2o1` [Example 186, (2S)-1-(benzofuran-2-ylsulfonyl)-N-[[2-[[4-(trifluoromethyl)phenyl]methylamino]-4-pyridyl]methyl]pyrrolidine-2-carboxamide], for which the IC50 worked out at 86 nM.

As to `O=C(NCc1cccc(OCc2ccc(C(F)(F)F)cc2)c1)[C@@H]1CC=CCN1S(=O)(=O)c1cc2ccccc2o1` [Example 187, (2S)-1-(benzofuran-2-ylsulfonyl)-N-[[3-[[4-(trifluoromethyl)phenyl]methoxy]phenyl]methyl]-3,6-dihydro-2H-pyridine-2-carboxamide], the 50% inhibitory concentration (IC50) is 71 nM.

Turning to `O=C(NCc1cccc([S+]([O-])Cc2ccccc2)c1)[C@@H]1CCCN1S(=O)(=O)c1cc2ccccc2o1` (stereo partly drawn) [Example 188, (2S)-1-(benzofuran-2-ylsulfonyl)-N-[(3-benzylsulfinylphenyl)methyl]pyrrolidine-2-carboxamide], the IC50 came to 890 nM.

On to `CC(C)(C)OC[C@H](NS(=O)(=O)c1cc2cc(F)ccc2o1)C(=O)NCc1cccc(-c2ccc(C(F)(F)F)nc2)c1` [Example 189, (2S)-3-tert-butoxy-2-[(5-fluorobenzofuran-2-yl)sulfonylamino]-N-[[3-[6-trifluoromethyl-3-pyridyl]phenyl]methyl]propanamide], for which the IC50 was found to be 840 nM.

With `C[C@H](NS(=O)(=O)c1cc2cc(F)ccc2o1)C(=O)NCc1cc(-c2ccc(OC(F)(F)F)cc2)ncn1` [Example 190, (2S)-2-[(5-fluorobenzofuran-2-yl)sulfonylamino]-N-[[6-[4-(trifluoromethoxy)phenyl]pyrimidin-4-yl]methyl]propanamide], the half-maximal inhibitory concentration (IC50) stood at 5.2 nM.

Turning to `O=C(NCc1cc(-c2ncc(C(F)(F)F)cn2)ccn1)[C@@H]1CCCN1S(=O)(=O)c1cc2ccccc2o1` [Example 192, (2S)-1-(benzofuran-2-ylsulfonyl)-N-[[4-[5-(trifluoromethyl)pyrimidin-2-yl]-2-pyridyl]methyl]pyrrolidine-2-carboxamide], the IC50 turned out to be 22 nM.

As to `O=C(NCc1ccc(O)c(-c2ccc(C(F)(F)F)cn2)c1)[C@@H]1CCCN1S(=O)(=O)c1cc2ccccc2o1` [Example 193, (2S)-1-(benzofuran-2-ylsulfonyl)-N-[[4-hydroxy-3-[5-(trifluoromethyl)-2-pyridyl]phenyl]methyl]pyrrolidine-2-carboxamide], the IC50 was 2.2 nM.

Turning to `O=C(NCc1cccc(-c2ncc(C(F)(F)F)cn2)c1)[C@@H]1CCCN1S(=O)(=O)c1cc2ccccc2o1` [Example 194, (2S)-1-(benzofuran-2-ylsulfonyl)-N-[[3-[5-(trifluoromethyl)pyrimidin-2-yl]phenyl]-methyl]pyrrolidine-2-carboxamide], the IC50 came out at 10 nM.

On to `O=C(NCc1cccc(-c2cnc(C(F)(F)F)nc2)c1)[C@@H]1CCCN1S(=O)(=O)c1cc2ccccc2o1` [Example 195, (2S)-1-(benzofuran-2-ylsulfonyl)-N-[[3-[2-(trifluoromethyl)pyrimidin-5-yl]phenyl]-methyl]pyrrolidine-2-carboxamide], for which the IC50 came to 2.5 nM.

For `O=C(NCc1cccc(-c2cnc(C(F)(F)F)cn2)c1)[C@@H]1CCCN1S(=O)(=O)c1cc2ccccc2o1` [Example 196, (2S)-1-(benzofuran-2-ylsulfonyl)-N-[[3-[5-(trifluoromethyl)pyrazin-2-yl]phenyl]methyl]-pyrrolidine-2-carboxamide], the 50% inhibitory concentration (IC50) worked out at 2.9 nM.

Turning to `O=C(NCc1cccc(-c2ccc(C(F)(F)F)nn2)c1)[C@@H]1CCCN1S(=O)(=O)c1cc2ccccc2o1` [Example 197, (2S)-1-(benzofuran-2-ylsulfonyl)-N-[[3-[6-(trifluoromethyl)pyridazin-3-yl]phenyl]methyl]-pyrrolidine-2-carboxamide], the half-maximal inhibitory concentration (IC50) is 3 nM.

Turning to `O=C(NCc1ccnc(-c2ccc(Cl)cc2)c1)[C@@H]1CCCN1S(=O)(=O)c1cc2ccccc2o1` [Example 198, (2S)-1-(benzofuran-2-ylsulfonyl)-N-[[2-(4-chlorophenyl)-4-pyridyl]methyl]pyrrolidine-2-carboxamide], the half-inhibitory concentration (IC50) is 13 nM.

Take `O=C(NCc1ccnc(-c2cnc(C(F)(F)F)nc2)c1)[C@@H]1CCCN1S(=O)(=O)c1cc2ccccc2o1` [Example 199, (2S)-1-(benzofuran-2-ylsulfonyl)-N-[[2-[2-(trifluoromethyl)pyrimidin-5-yl]-4-pyridyl]methyl]pyrrolidine-2-carboxamide]: the IC50 was determined as 5 nM.

For `O=C(NCc1cc(-c2cnc(C(F)(F)F)nc2)ccn1)[C@@H]1CCCN1S(=O)(=O)c1cc2ccccc2o1` [Example 200, (2S)-1-(benzofuran-2-ylsulfonyl)-N-[[4-[2-(trifluoromethyl)pyrimidin-5-yl]-2-pyridyl]methyl]pyrrolidine-2-carboxamide], the IC50 is 16 nM.

`O=C(NCc1cc(-c2cnc(C(F)(F)F)cn2)ccn1)[C@@H]1CCCN1S(=O)(=O)c1cc2ccccc2o1` [Example 201, (2S)-1-(benzofuran-2-ylsulfonyl)-N-[[4-[5-(trifluoromethyl)pyrazin-2-yl]-2-pyridyl]methyl]pyrrolidine-2-carboxamide]: the IC50 was 8.6 nM.

In the case of `O=C(NCc1cc(-c2ccc(C(F)(F)F)nn2)ccn1)[C@@H]1CCCN1S(=O)(=O)c1cc2ccccc2o1` [Example 202, (2S)-1-(benzofuran-2-ylsulfonyl)-N-[[4-[6-(trifluoromethyl)pyridazin-3-yl]-2-pyridyl]methyl]pyrrolidine-2-carboxamide], the half-inhibitory concentration (IC50) came out at 4.3 nM.

`O=C(NCc1cc(-c2ccc(OC(F)(F)F)cc2)ncn1)[C@@H]1CCCN1S(=O)(=O)c1cc2ccccc2o1` [Example 203, (2S)-1-(benzofuran-2-ylsulfonyl)-N-[[6-[4-(trifluoromethoxy)phenyl]-pyrimidin-4-yl]methyl]pyrrolidine-2-carboxamide]: the concentration for half-maximal inhibition (IC50) was found to be 3.2 nM.

In the case of `O=C(NCc1ccnc(-c2ccc(OCC(F)(F)F)cc2)c1)[C@@H]1CCCN1S(=O)(=O)c1cc2ccccc2o1` [Example 204, (2S)-1-(benzofuran-2-ylsulfonyl)-N-[[2-[4-(2,2,2-trifluoroethoxy)phenyl]-4-pyridyl]methyl]pyrrolidine-2-carboxamide], the IC50 worked out at 35 nM.

As to `O=C(NCc1cc(-c2ccc(C(F)(F)F)nc2)ncn1)[C@@H]1CCCN1S(=O)(=O)c1cc2ccccc2o1` [Example 205, (2S)-1-(benzofuran-2-ylsulfonyl)-N-[[6-[6-(trifluoromethyl)-3-pyridyl]pyrimidin-4-yl]methyl]pyrrolidine-2-carboxamide], the concentration for half-maximal inhibition (IC50) turned out to be 4 nM.

Take `O=C(NCc1cc(-c2ccc(C(F)(F)F)cn2)ncn1)[C@@H]1CCCN1S(=O)(=O)c1cc2ccccc2o1` [Example 206, (2S)-1-(benzofuran-2-ylsulfonyl)-N-[[6-[5-(trifluoromethyl)-2-pyridyl]pyrimidin-4-yl]methyl]pyrrolidine-2-carboxamide]: the IC50 was found to be 12 nM.

As for `O=C(NCc1cc(-c2cnc(C(F)(F)F)nc2)ncn1)[C@@H]1CCCN1S(=O)(=O)c1cc2ccccc2o1` [Example 207, (2S)-1-(benzofuran-2-ylsulfonyl)-N-[[6-[2-(trifluoromethyl)pyrimidin-5-yl]pyrimidin-4-yl]methyl]pyrrolidine-2-carboxamide], the IC50 was found to be 4 nM.

Turning to `O=C(NCc1cnnc(-c2ccc(C(F)(F)F)cc2)c1)[C@@H]1CCCN1S(=O)(=O)c1cc2ccccc2o1` [Example 208, (2S)-1-(benzofuran-2-ylsulfonyl)-N-[[6-[4-(trifluoromethyl)phenyl]-pyridazin-4-yl]methyl]pyrrolidine-2-carboxamide], the IC50 was found to be 34 nM.

In the case of `O=C(NCc1cnnc(-c2ccc(C(F)(F)F)nc2)c1)[C@@H]1CCCN1S(=O)(=O)c1cc2ccccc2o1` [Example 209, (2S)-1-(benzofuran-2-ylsulfonyl)-N-[[6-[6-(trifluoromethyl)-3-pyridyl]pyridazin-4-yl]methyl]pyrrolidine-2-carboxamide], the IC50 was found to be 110 nM.

As for `O=C(NCc1cc(-c2ccc(C(F)(F)F)cc2)cnn1)[C@@H]1CCCN1S(=O)(=O)c1cc2ccccc2o1` [Example 210, (2S)-1-(benzofuran-2-ylsulfonyl)-N-[[5-[4-(trifluoromethyl)phenyl]-pyridazin-3-yl]methyl]pyrrolidine-2-carboxamide], the IC50 came out at 19 nM.

For `O=C(NCc1cc(-c2ccc(C(F)(F)F)nc2)cnn1)[C@@H]1CCCN1S(=O)(=O)c1cc2ccccc2o1` [Example 211, (2S)-1-(benzofuran-2-ylsulfonyl)-N-[[5-[6-(trifluoromethyl)-3-pyridyl]pyridazin-3-yl]methyl]pyrrolidine-2-carboxamide], the half-inhibitory concentration (IC50) worked out at 72 nM.

Regarding `O=C(NCc1cc(-c2ccc(C(F)(F)F)cn2)cnn1)[C@@H]1CCCN1S(=O)(=O)c1cc2ccccc2o1` [Example 212, (2S)-1-(benzofuran-2-ylsulfonyl)-N-[[5-[5-(trifluoromethyl)-2-pyridyl]pyridazin-3-yl]methyl]pyrrolidine-2-carboxamide], the IC50 came to 27 nM.
